The test system of one assay is U2OS cells. The assay can be described thus: cells. The class given is cell-based. Particulars: Homo sapiens; U2OS osteosarcoma cells, 24 h, luminescence of constitutively expressed luciferase; read-out: Cytotox EC25 U2OS (converted). The method, boiled down:
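Cytotox CALUX U2OS cells, constitutively expressing luciferase, dosed with a compound dilution series 24 h after seeding and exposed 24 h. Luminescence after lysis reflects live-cell number; scaled between vehicle (100%) and 100 µM tributyltin acetate (0%).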

The subject of assay [1] is LUHMES cells. Briefly: NeuriTox test: neurite area and viability, 24 h. It is filed as cell-based, human. A digest of the protocol:
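LUHMES cells differentiated 48 h were reseeded at 100,000 cells/cm^2 without cAMP/GDNF and treated 1 h later for 24 h; for 120 h exposure, treatment on d5 and d7 with endpoints on d10. Calcein-AM/Hoechst imaging gave viability (live/total cells) and neurite area (calcein area minus somatic area).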

Assay [2] has as its system MRC complex (cI, cII or cIII). The assay can be described thus: HepG2-based MRC complex assay in permeabilized cells (earlier study). The class given is cell-based. Particulars: NeuriTox neurite EC25 relative to complex assay EC25 in permeabilized cells; respirometric data from HepG2-based assays ref van der Stel et al. 2020.
A further assay has as its system proteasome. Briefly: Proteasomal activity (KE3 assay) in LUHMES cells. Particulars: NeuriTox neurite EC25 relative to proteasomal activity EC25, LUHMES. It is filed as cell-based, human. As for the experimental part: Activity of the proteasome was quantified as described in (Gutbier et al. [2018b]). Briefly, after exposure, culture medium was replaced by assay buffer containing a cell-permeable proteasomal substrate (MeOSuc-Gly-Leu-Phe-AMC, 25 µM (Bachem, Bubendorf, Switzerland) in HBSS). Its AMC-fluorescence (ex: 360 nm, em: 465 nm) increases with proteasomal activity and was monitored for 90 min. Background-corrected data were used for further analysis.

Assay [3] has as its system LUHMES cells. The class given is cell-based, human. Particulars: for log2FoldChange AARS: gene AARS; for log2FoldChange AARS / log2FoldChange AASDHPPT / log2FoldChange AATF / log2FoldChange ABCA1 / log2FoldChange ABCA6: vs 0.1% DMSO; for log2FoldChange AASDHPPT: gene AASDHPPT; for log2FoldChange AATF: gene AATF; for log2FoldChange ABCA1: gene ABCA1; for log2FoldChange ABCA6: gene ABCA6. As to the method: Cells were cultured and treated as described above for the NeuriTox assay. On d3, after 24 h treatment, culture medium was replaced by 33 µl/well 1 × Biospyder lysis buffer. After 15 min at room temperature, plates were sealed and frozen at -80 °C to complete lysis. Samples were analyzed at Bioclavis (Glasgow) using the TempO-Seq technique and the EU-ToxRisk v2.0 gene probe panel covering ca. 3000 genes (Yeakley et al. [2017]). All genes are listed in the supplementary excel file (containing also all gene regulations). Briefly, a 50 bp fragment of the target gene was amplified. The amplification step also introduced sample-specific barcodes. This allowed pooling of all samples and standard next-generation sequencing of the ensemble. Afterward, adapters were used to allocate the sequenced fragments to the correct samples. Finally, the alignment of all sequenced fragments (FASTQ files) for each sample to the collection of reference 50 bp oligonucleotides was performed for the quantification of reads per gene, also known as the read count values. In a pre-filtering step, samples with a total count < 0.2 million and genes with an average count < 1.5 were removed.
To correct for both read depth and RNA composition, the DESeq2′s median of ratios normalization was applied. The analysis of differentially expressed genes (DEG) of each treatment against the control group was done by the Wald test implemented in DESeq2/R (Love et al. [2014]), including an FDR correction for p-adjusted ≤ 0.05. […] A curve was fit through these concentration–response data to obtain EC10DEG. For comparability, all DEG data were normalized to a positive control. […] The EC10DEG was calculated using an established online open access BMC calculator (BMCeasy) (Krebs et al. [2020]).

The test system of another assay is HepG2 cells. Briefly: HepG2-based respirometry, total cell respiration (earlier study). Particulars: NeuriTox neurite EC25 relative to cell respiration EC25; respirometric data from HepG2-based assays ref van der Stel et al. 2020.
For a further assay, the system named is SH-SY5Y cells. The assay can be described thus: Mitochondrial membrane potential (rhodamine 123), KE2 assay. The class given is cell-based, human. Particulars: for EC25: Homo sapiens, SH-SY5Y differentiated 6 days, treated 24 h, rhodamine-123, read-out: pEC25 MMP (concentration where MMP was reduced by 25%) (converted); for Ratios of EC25 KE4/KE2 MMP: NeuriTox neurite EC25 relative to SH-SY5Y MMP EC25.

[4] abbreviates: Homo sapiens, NeuriTox exposure scheme, 24 h, read-out: LUHMES 24 h EC25 NA (neurite area) (converted).
Where [5] appears, read: Homo sapiens, NeuriTox exposure scheme, 24 h, read-out: LUHMES 24 h EC25 V (viability) (converted).
[6] abbreviates: Homo sapiens, NeuriTox test, neurite outgrowth impairment, LUHMES 24 h, read-out: EC25 KE4 (AO) Neurite toxicity (converted).

Where two headings read alike, the source gives them in different places. Bounds are passed on as bounds.

Turning to `CC1=C(C(=O)Nc2ccccc2)SCCO1` [Carboxin], the EC25 in the assay with U2OS cells was > 100 µM. For the same molecule, in the assay on LUHMES cells [1] (setting [4]), the EC25 was 79.4 µM. Also, the EC25 with LUHMES cells [1] (setting [5]) is > 100 µM. Besides, the EC25 in the assay with LUHMES cells [1] (setting [6]) was 79.4 µM. In assay [2], the “Ratios of EC25 KE4/KE1 complex assay” value amounted to 32. Besides, in the assay with proteasome, the “Ratios of EC25 KE4/KE3 proteasomal” value is recorded as < 0.8. Also, in the assay with LUHMES cells [3] (0.20 µM, 24 h), the “log2FoldChange AARS” value is given as -0.12 log2, the “log2FoldChange AASDHPPT” value came to 0.26 log2, the “log2FoldChange AATF” value is 0.0462 log2 and the “log2FoldChange ABCA1” value was -0.37 log2. The “log2FoldChange ABCA6” value in the assay with LUHMES cells [3] (0.20 µM, 24 h) is 0.78 log2. In the assay on HepG2 cells, the “Ratios of EC25 KE4/KE1 total respiration” value was < 8. In the assay on SH-SY5Y cells, the EC25 was 1.58 µM and the “Ratios of EC25 KE4/KE2 MMP” value came to 48. For the same molecule, the “Decrease of the MMP reached” value in the assay on SH-SY5Y cells (SH-SY5Y, 24 h, non-cytotoxic concentrations) is reported as “at least 50%”.
As for `Cc1nc(C(F)(F)F)c(C(=O)Nc2c(Br)cc(OC(F)(F)F)cc2Br)s1` [Thifluzamide], the EC25 with U2OS cells was 20 µM. In addition, the EC25 in the assay with LUHMES cells [1] (setting [4]) was 20 µM. Moreover, the EC25 in the assay on LUHMES cells [1] (setting [5]) was 63.1 µM. The EC25 with LUHMES cells [1] (setting [6]) is 20 µM. Besides, in assay [2], the “Ratios of EC25 KE4/KE1 complex assay” value turned out to be 2.5. Also, in the assay on proteasome, the “Ratios of EC25 KE4/KE3 proteasomal” value turned out to be 1.1. In the assay with LUHMES cells [3] (0.15 µM, 24 h), the “log2FoldChange AARS” value is -0.98 log2, the “log2FoldChange AASDHPPT” value came out at 0.89 log2, the “log2FoldChange AATF” value is -0.41 log2 and the “log2FoldChange ABCA1” value is given as -0.76 log2. In addition, the “log2FoldChange ABCA6” value in the assay with LUHMES cells [3] (0.15 µM, 24 h) is listed as 1.03 log2. Further, the “Ratios of EC25 KE4/KE1 total respiration” value in the assay with HepG2 cells is < 2. For the same molecule, the EC25 in the assay with SH-SY5Y cells is > 10 µM.
On to `CCCCCC[C@H]1C(=O)O[C@H](C)[C@H](NC(=O)c2cccc(NC=O)c2O)C(=O)O[C@@H](C)[C@@H]1OC(=O)CC(C)C` [Antimycin A], for which the EC25 with U2OS cells was 100 µM. The “Offset between neurite endpoint (LUHMES/SH-SY5Y) and U2OS viability” value with LUHMES cells [1] is given as “potentially strong neurite-specific toxicant”. For the same molecule, the EC25 with LUHMES cells [1] (setting [4]) was 15.8 µM. Also, the EC25 in the assay with LUHMES cells [1] (setting [5]) is > 50.1 µM. Moreover, in the assay with LUHMES cells [1] (setting [6]), the EC25 was 15.8 µM. Also, the “Ratios of EC25 KE4/KE1 complex assay” value in assay [2] came out at 1580. The “Ratios of EC25 KE4/KE3 proteasomal” value with proteasome was found to be 1.1. Also, in the assay with LUHMES cells [3] (0.08 µM, 24 h), the “log2FoldChange AARS” value is -0.20 log2, the “log2FoldChange AASDHPPT” value was -0.32 log2, the “log2FoldChange AATF” value worked out at 0.18 log2 and the “log2FoldChange ABCA1” value is recorded as -0.64 log2. Besides, the “log2FoldChange ABCA6” value in the assay with LUHMES cells [3] (0.08 µM, 24 h) came out at 1.98 log2. For the same molecule, in the assay on HepG2 cells, the “Ratios of EC25 KE4/KE1 total respiration” value was found to be 1580. In the assay on SH-SY5Y cells, the EC25 is 0.0631 µM and the “Ratios of EC25 KE4/KE2 MMP” value was 257.
`COc1cc2c(cc1OC)[C@@H]1C(=O)c3ccc4c(c3O[C@@H]1CO2)C=CC(C)(C)O4` [Deguelin]: the EC25 in the assay on U2OS cells is > 50.1 µM. Also, in the assay with LUHMES cells [1], the “Offset between neurite endpoint (LUHMES/SH-SY5Y) and U2OS viability” value is “> tenfold offset”. In addition, the EC50 with LUHMES cells [1] (Homo sapiens, read-out: EC10V (10% reduction of viability), NeuriTox assay, LUHMES 24 h) is 13 µM. Also, in the assay on LUHMES cells [1] (setting [4]), the EC25 was 3.98 µM. Also, the EC25 in the assay on LUHMES cells [1] (setting [5]) was 50.1 µM. For the same molecule, in the assay on LUHMES cells [1] (setting [6]), the EC25 was 3.98 µM. For the same molecule, the “Ratios of EC25 KE4/KE1 complex assay” value in assay [2] turned out to be 250. Moreover, the “Ratios of EC25 KE4/KE3 proteasomal” value in the assay with proteasome came out at 0.7. Also, the “Number of DEGs triggered” value in the assay on LUHMES cells [3] (13 µM, 24 h, LUHMES) was found to be 325. For the same molecule, the “Regulation of the 13 deguelin-sensitive genes (in words)” value in the assay on LUHMES cells [3] (LUHMES 24 h) is 11 out of 13 of these genes were not significantly regulated up to 0.8 µM deguelin, but clearly upregulated at 3.25 µM. Also, in the assay on LUHMES cells [3] (0.05 µM, 24 h), the “log2FoldChange AARS” value was -0.69 log2, the “log2FoldChange AASDHPPT” value worked out at 0.63 log2, the “log2FoldChange AATF” value is -0.08 log2 and the “log2FoldChange ABCA1” value is on record as -2.12 log2. Also, the “log2FoldChange ABCA6” value in the assay with LUHMES cells [3] (0.05 µM, 24 h) was determined as 0.47 log2. The “Ratios of EC25 KE4/KE1 total respiration” value with HepG2 cells stood at 32. In the assay with SH-SY5Y cells, the EC25 is 0.316 µM and the “Ratios of EC25 KE4/KE2 MMP” value is 13.
In the case of `COC(=O)N(OC)c1ccccc1COc1ccn(-c2ccc(Cl)cc2)n1` [Pyraclostrobin], in the assay on U2OS cells, the EC25 is > 100 µM. In addition, the EC25 in the assay with LUHMES cells [1] (setting [4]) was 25.1 µM. For the same molecule, the EC25 in the assay on LUHMES cells [1] (setting [5]) is > 50.1 µM. Besides, the EC25 with LUHMES cells [1] (setting [6]) is 25.1 µM. Moreover, the “Ratios of EC25 KE4/KE1 complex assay” value in assay [2] turned out to be 400. Also, in the assay with proteasome, the “Ratios of EC25 KE4/KE3 proteasomal” value came to 0.7. Moreover, in the assay on LUHMES cells [3] (0.0856 µM, 24 h), the “log2FoldChange AARS” value is listed as -0.28 log2, the “log2FoldChange AASDHPPT” value is given as 0.80 log2, the “log2FoldChange AATF” value is given as -0.24 log2 and the “log2FoldChange ABCA1” value was -1.33 log2. Further, the “log2FoldChange ABCA6” value in the assay with LUHMES cells [3] (0.0856 µM, 24 h) was 0.89 log2. Further, in the assay with HepG2 cells, the “Ratios of EC25 KE4/KE1 total respiration” value was 100. Moreover, in the assay on SH-SY5Y cells, the EC25 was 0.316 µM and the “Ratios of EC25 KE4/KE2 MMP” value was 85.
